According to patent publication US20240166703A1, “ANTI-INFLAMMATORY PEPTIDE AND METHOD OF USE THEREOF” (The Regents of the University of California, priority 2021, published 2024):

Tests used:
BMDM cells = assay: Quantitation of cytokines in supernatant of cultured BMDM cells (toxicity); format: cell-based, C57BL/6J mice; details: 100 μM, 24 hours, without stimulating the cells
Method: With the approval of the UCSD and Veteran Affairs San Diego Institutional Animal Care and Use Committees (IACUC), bone marrow-derived macrophage (BMDM) cells were isolated from 6-8 weeks old C57BL/6J mice (Jackson Laboratory) followed by erythrocyte lysis with ammonium chloride, and then seeded in 12-well plates at a concentration of 1×10^6 cells/mL. Cultured cells were differentiated to macrophages with culture media containing monocyte-colony stimulating factor (M-CSF; 10 ng/mL). After 7 days of differentiation, BMDM cells were treated with TNF-α (10 ng/mL) or LPS ([…]) with or without TAT-NEMO^ActPep, TAT-NEMO^ActPep6G, or MLN120B.
BMDM cels were pre-incubated with or without 100 μM TAT-NEMO^ActPep or MLN120B for 24 hours. Negative control cells were treated with 1×PBS or DMSO at the same concentrations as those present in either TAT-NEMO^ActPep or MLN120B, respectively. IL-1β and TNF-α levels were measured from 20 μL supernatant of cultured BMDM cells using U-PLEX mouse cytokine assay kit (Meso Scale Diagnostics) following the manufacturer's protocol. […] Experiments were performed in triplicate.
Further, the potentially toxic effects of a high concentration (100 μM) dose of NEMO^ActPep were tested on IL-1β production in BMDMs without stimulating the cells. […]

[1] = tested on: B- and T-cell proliferation; details: cited from earlier work
mice = details: mouse, in vivo; cited from earlier work

## COc1c(Cl)cc2c([nH]c3cnccc32)c1NC(=O)c1cccnc1C [MLN120B]
BMDM cells
  TNF-α expression / basal levels in BMDM supernatant: reduced basal levels of TNF-α
  production of IL-1β in BMDM supernatant: significantly induced production of mature IL-1β
[1]
  B- and T-cell proliferation: block B- and T-cell proliferation
mice
  neutrophilia in mice: promote neutrophilia
  septic shock in mice: cause septic shock
